In US10105357B2, “Indication of antibiotic drugs for preparation of cancer inhibition pharmaceutical composition” (LAUNX BIOMEDICAL CO., LTD., priority 2014, dated 2018):
Where a name gives a salt, the structure may show the parent alone. Read-outs that look alike come from different tables or passages of the source.

Legend:
Format in all cases: cell-based, human
[1] = test system: HeLa (Cervix Adenocarcinoma); assay: Cell viability analysis, cervical cancer HeLa; settings: for cell viability (survival rate), HeLa: drug 10 μM, 72 hours, WST-1, OD450 nm; for viability at 10 µM: Homo sapiens, HeLa, 72 h, read-out: cell viability (survival rate), HeLa, drug 10 μM, 72 hours, WST-1, OD450 nm
[2] = test system: MCF7 (Mammary Gland, Adenocarcinoma); assay: Cell viability analysis, breast cancer MCF7; settings: for viability at 10 µM: Homo sapiens, MCF7, 72 h, read-out: cell viability (survival rate), MCF7, drug 10 μM, 72 hours, WST-1, OD450 nm
[3] = test system: HL-60 (Acute Promyelocytic Leukemia); assay: Cell viability analysis, leukemia HL-60; settings: for cell viability (survival rate), HL-60: drug 10 μM, 72 hours, WST-1, OD450 nm; for viability at 10 µM: Homo sapiens, HL-60, 72 h, read-out: cell viability (survival rate), HL-60, drug 10 μM, 72 hours, WST-1, OD450 nm
[4] = test system: HI650 (Lung Adenocarcinoma); assay: Cell viability analysis, lung cancer HI650; settings: for cell viability (survival rate), H1650: drug 10 μM, 72 hours, WST-1, OD450 nm; for viability at 10 µM: Homo sapiens, NCI-H1650, 72 h, read-out: cell viability (survival rate), H1650, drug 10 μM, 72 hours, WST-1, OD450 nm
[5] = test system: LoVo (Colorectal Adenocarcinoma); assay: Cell viability analysis, colon cancer LoVo; settings: for viability at 10 µM: Homo sapiens, LoVo
[6] = test system: A375 (Amelanotic Melanoma); assay: Cell viability analysis, skin cancer A375; settings: for cell viability (survival rate), A375: drug 10 μM, 72 hours, WST-1, OD450 nm; for viability at 10 µM: Homo sapiens, A-375, 72 h, read-out: cell viability (survival rate), A375, drug 10 μM, 72 hours, WST-1, OD450 nm
[7] = test system: A549 (Lung Adenocarcinoma); assay: Cell viability analysis, lung cancer A549; settings: for viability at 10 µM: Homo sapiens, A549, 72 h, read-out: cell viability (survival rate), A549, drug 10 μM, 72 hours, WST-1, OD450 nm
[8] = test system: AGS (Gastric Adenocarcinoma); assay: Cell viability analysis, gastric cancer AGS; settings: for cell viability (survival rate), AGS: drug 10 μM, 72 hours, WST-1, OD450 nm; for viability at 10 µM: Homo sapiens, 72 h, read-out: cell viability (survival rate), AGS, drug 10 μM, 72 hours, WST-1, OD450 nm
cancer cell lines = assay: Cell viability analysis (WST-1) on cancer cell lines; settings: drug 10 μM, 72 hours; for Inhibitory effect on cancer cell line: WST-1, OD450 nm, Table 2: drugs which do not have significant inhibitory effect; for inhibition effect on different cancer cell lines: WST-1, Table 3
[9] = test system: MKN-45 (Gastric Adenocarcinoma); assay: Cell viability analysis, gastric cancer MKN-45; settings: for viability at 10 µM: Homo sapiens, MKN-45, 72 h, read-out: cell viability (survival rate), MKN-45, drug 10 μM, 72 hours, WST-1, OD450 nm
[10] = test system: TSGH-8301 (Urinary Bladder Carcinoma); assay: Cell viability analysis, bladder cancer TSGH-8301; settings: for viability at 10 µM: Homo sapiens, 72 h, read-out: cell viability (survival rate), TSGH, drug 10 μM, 72 hours, WST-1, OD450 nm
[11] = test system: HepG2 (Hepatocellular Carcinoma); assay: Cell viability analysis, hepatic cancer HepG2; settings: for viability at 10 µM: Homo sapiens, HepG2, 72 h, read-out: cell viability (survival rate), HepG2, drug 10 μM, 72 hours, WST-1, OD450 nm
[12] = test system: PC3 (p53−) (Prostate Adenocarcinoma); assay: Cell viability analysis, prostate cancer PC3; settings: 72 h
[13] = drug 10 μM, 72 hours, WST-1, OD450 nm
[14] = 72 h, read-out: cell viability (survival rate), LoVo, drug 10 μM, 72 hours, WST-1, OD450 nm

| Compound | inhibition effect on different cancer cell lines (cancer cell lines) | viability at 10 µM [1] | viability at 10 µM [2] | viability at 10 µM [3] | viability at 10 µM [4] | viability at 10 µM [10] | viability at 10 µM [11] | viability at 10 µM [5, 14] | viability at 10 µM [6] | viability at 10 µM [7] | viability at 10 µM [8] | viability at 10 µM [9] | also measured |
| --- | --- | --- | --- | --- | --- | --- | --- | --- | --- | --- | --- | --- | --- |
| Salbutamol sulfate [Salbutamol sulfate (Albuterol)] | significant inhibition effect |  |  |  |  |  |  |  |  |  |  |  | cell viability (survival rate), HeLa [1]: 99.9; cell viability (survival rate), MCF7 [2, 13]: 139.6; cell viability (survival rate), HL-60 [3]: 104.1; cell viability (survival rate), H1650 [4]: 84.3; cell viability (survival rate), LoVo [5, 13]: 97.1; cell viability (survival rate), A375 [6]: 98.0; cell viability (survival rate), A549 [7, 13]: 94.6; cell viability (survival rate), AGS [8]: 91.8; Inhibitory effect on cancer cell line (cancer cell lines): 0; cell viability (survival rate), MKN-45 [9, 13]: 71.2 |
| CC(=O)OCC1=C(C(=O)O)N2C(=O)[C@@H](NC(=O)CSc3ccncc3)[C@H]2SC1 [Cephapirin Sodium] | significant inhibition effect | 69.2% | 49.5% | 84.3% | 76.2% | 78.2% | 79.8% | 92.8% | 50.2% | 57.7% | 79.8% | 69.1% |  |
| [H]/N=C(/N)NS(=O)(=O)c1ccc(N)cc1 [Sulfaguanidine] | significant inhibition effect | 113% | 92.6% | 99.1% | 95.6% | 107% | 96.1% | 78.9% | 145% | 82.2% | 84% | 83.5% |  |
| O=c1[nH]cnc2c1ncn2[C@H]1CC[C@@H](CO)O1 [Didanosine (Videx), Didanosine] | significant inhibition effect | 80.3% | 78.4% | 126% | 64.2% | 76.7% | 119% | 95.1% | 77.2% | 67.5% | 48.7% | 62% |  |
| CC1(C)[C@H](C(=O)O)N2C(=O)C[C@H]2S1(=O)=O [Sulbactam] | significant inhibition effect |  |  |  |  |  |  |  |  |  |  |  | viability at 10 µM ([5]; drug 10 μM, 72 hours, WST-1, OD450 nm, read-out: cell viability (survival rate), LoVo): 81.7% |
| Cc1cccn2c(=O)c(-c3nnn[nH]3)cnc12 [Pemirolast (BMY 26517) potassium, Pemirolast potassium] | significant inhibition effect | 88.4% | 83.2% |  | 81.8% | 93.7% | 82.1% | 107% | 70.8% | 82.9% | 69.4% |  | viability at 10 µM ([12]; Homo sapiens, read-out: cell viability (survival rate), PC3, drug 10 μM, 72 hours, WST-1, OD450 nm): 53.8% |
| CN(C)CCC(c1ccc(Br)cc1)c1ccccn1 (stereo not shown) [Brompheniramine] | significant inhibition effect | 111% | 75.8% | 122% | 83% | 97.9% | 95.7% | 98.9% |  | 109% | 121% | 85.8% |  |
| CCn1cc(C(=O)O)c(=O)c2cc(F)c(N3CCNC(C)C3)c(F)c21 (stereo not shown) [Lomefloxacin hydrochloride (Maxaquin), Lomefloxacin hydrochloride] | significant inhibition effect |  |  |  |  |  |  |  |  |  |  |  |  |
| NNC(=O)c1ccncc1.Nc1ccc(C(=O)O)c(O)c1 [Pasiniazid] | significant inhibition effect |  |  |  |  |  |  |  |  |  |  |  |  |
| Meclocycline Sulfosalicylate | significant inhibition effect |  |  |  |  |  |  |  |  |  |  |  |  |
| CCN1CCN(C(=O)N[C@@H](C(=O)N[C@@H]2C(=O)N3[C@@H]2SC(C)(C)[C@@H]3C(=O)O)c2ccccc2)C(=O)C1=O [Piperacillin Sodium] | significant inhibition effect |  | 52.3% | 108% | 71.6% | 87.1% | 96.3% | 97.4% | 67.9% | 37.1% | 98.3% | 87.1% |  |
| Bismuth Subcitrate Potassium | significant inhibition effect |  |  |  |  |  |  |  |  |  |  |  | Inhibitory effect on cancer cell line (cancer cell lines): 0 |
| CO/N=C(\C(=O)N[C@@H]1C(=O)N2C(C(=O)O)=C(Cn3ccc(=N)n3CCO)CS[C@H]12)c1csc(N)n1.O=S(=O)(O)O [Cefoselis sulfate] | significant inhibition effect |  |  |  |  |  |  |  |  |  |  |  | Inhibitory effect on cancer cell line (cancer cell lines): 0 |
| Cl.NC1CCN(c2c(F)cc3c(=O)c(C(=O)O)cn(C4CC4)c3c2Cl)C1 (stereo not shown) [Clinafoxacin HCl] | significant inhibition effect |  |  |  |  |  |  |  |  |  |  |  |  |
| Teicoplanin | significant inhibition effect |  |  |  |  |  |  |  |  |  |  |  |  |
| C[C@@H](O)[C@H]1C(=O)N2C(C(=O)O)=C(S[C@@H]3CN[C@H](CNS(N)(=O)=O)C3)[C@H](C)[C@H]12 [Doripenem Hydrate] | significant inhibition effect | 122% | 99.8% | 91.2% | 78.5% | 79.9% | 106% | 95.2% |  | 70.9% | 66.5% | 111% |  |
| Dabigatran [BIBR-1048 (Dabigatran)] | significant inhibition effect |  |  |  |  |  |  |  |  |  |  |  |  |
| Colistin Sulfate | significant inhibition effect |  |  |  |  |  |  |  |  |  |  |  | cell viability (survival rate), HeLa [1]: 84.3; cell viability (survival rate), HL-60 [3]: 108.9; cell viability (survival rate), H1650 [4]: 62.2; cell viability (survival rate), TSGH [10, 13]: 36.2; cell viability (survival rate), HepG2 [11, 13]: 77.7; cell viability (survival rate), LoVo [5, 13]: 92.0; cell viability (survival rate), A375 [6]: 36.1; cell viability (survival rate), A549 [7, 13]: 97.6; cell viability (survival rate), AGS [8]: 26.1 |
| NCC[C@H](O)C(=O)N[C@@H]1C[C@H](N)[C@@H](O[C@H]2O[C@H](CN)[C@@H](O)[C@H](O)[C@H]2O)[C@H](O)[C@H]1O[C@H]1O[C@H](CO)[C@@H](O)[C@H](N)[C@H]1O.O=S(=O)(O)O.O=S(=O)(O)O [Amikacin sulfate] | significant inhibition effect |  |  |  |  |  |  |  |  |  |  |  |  |
| CC1(C)S[C@@H]2[C@H](NC(=O)[C@H](N)c3ccccc3)C(=O)N2[C@H]1C(=O)O [Ampicillin sodium] | significant inhibition effect | 75.2% |  |  | 53.5% | 72% | 76.1% | 88.9% | 68.9% |  | 105% |  | cell viability (survival rate), MCF7 ([2]; human, 72 h, 10 µM): 99.1; cell viability (survival rate), PC3 ([12]; human, 10 µM): 98.1; cell viability (survival rate), A549 ([7]; human, 72 h, 10 µM): 102.6; cell viability (survival rate), MKN-45 ([9]; human, 72 h, 10 µM): 77.9 |
| O=C(O)CCCC[C@@H]1SC[C@@H]2NC(=O)N[C@@H]21 [Biotin (Vitamin B7), Biotin] | significant inhibition effect | 90.7% | 89.1% | 85.2% | 94.2% | 93.5% |  | 99.2% | 71.3% | 86.4% | 104% | 85.1% |  |
| CCCCCCCCCCCCCCCC(=O)O[C@@H]1[C@@H](O)[C@@H](O)[C@@H]([C@H](NC(=O)[C@@H]2C[C@@H](CCC)CN2C)[C@H](C)Cl)O[C@@H]1SC.Cl [Clindamycin palmitate HCl] | significant inhibition effect |  |  |  |  |  |  |  |  |  |  |  |  |
| Spiramycin | significant inhibition effect |  |  |  |  |  |  |  |  |  |  |  |  |
